The values below come from patent US20080194616A1, “PYRIDOPYRIMIDINONE COMPOUNDS USEFUL IN TREATING SODIUM CHANNEL-MEDIATED DISEASES OR CONDITIONS” (Xenon Pharmaceuticals Inc., priority 2007, published 2008).

Counter-ions that a name gives are not always drawn.

The melting point is the temperature, or range, at which the solid turns liquid.

As for `CCCc1nc2ccccn2c(=O)c1-c1ccc(Cl)cc1` [Example 1.4, 3-(4-chlorophenyl)-2-propyl-4H-pyrido[1,2-a]pyrimidin-4-one], the melting point fell in the range of 109 to 110 °C.

`CCCCc1nc2ccccn2c(=O)c1-c1ccc(N[C@@H]2CCN(C)C2)cc1` [Example 10, (R)-2-butyl-3-(4-{[1-methylpyrrolidin-3-yl]amino}phenyl)-4H-pyrido[1,2-a]pyrimidin-4-one] registered a melting point of 141 to 143 °C.

`CCc1nc2ccccn2c(=O)c1-c1ccc(N[C@@H]2CCNC2)cc1` (as salt: hydrochloride) [Example 6.4, (R)-2-ethyl-3-(4-(pyrrolidin-3-ylamino)phenyl)-4H-pyrido[1,2-a]pyrimidin-4-one hydrochloride] came in with a melting point of 175 to 182 °C.

`CCCCc1nc2ccccn2c(=O)c1-c1ccc(N[C@@H]2CCOC2)cc1` (as salt: hydrochloride) [Example 3.29, (R)-2-butyl-3-{4-[tetrahydrofuran-3-ylamino]phenyl}-4H-pyrido[1,2-a]pyrimidin-4-one hydrochloride] showed a melting point of 135 to 145 °C.

The compound `CCCCc1nc2ccccn2c(=O)c1-c1ccc(N[C@@H]2CCNC2)cc1C` (as salt: hydrochloride) [Example 7.3, (R)-2-butyl-3-{2-methyl-4-[pyrrolidin-3-ylamino]phenyl}-4H-pyrido[1,2-a]pyrimidin-4-one hydrochloride] registered a melting point of 179 to 187 °C.

For the compound `CC(C)Nc1nc2ccccn2c(=O)c1-c1ccc(NC2CCNC2)cc1` (stereo not shown) (as salt: hydrochloride) [Example 7.9, 2-[(1-methylethyl)amino]-3-[4-(pyrrolidin-3-ylamino)phenyl]-4H-pyrido[1,2-a]pyrimidin-4-one hydrochloride], the melting point is 232 to 236 °C.

Regarding `CCCCc1nc2ccccn2c(=O)c1-c1ccc(OS(=O)(=O)C(F)(F)F)cc1` (as salt: methanesulfonate) [Example 12, 4-(2-butyl-4-oxo-4H-pyrido[1,2-a]pyrimidin-3-yl)phenyl trifluoromethanesulfonate], the melting point fell in the range of 106 to 108 °C.

For the compound `CC(C)c1nc2ccccn2c(=O)c1-c1ccc(NC2CCNC2)cc1` (stereo not shown) (as salt: hydrochloride) [Example 7.5, 2-(1-methylethyl)-3-[4-(pyrrolidin-3-ylamino)phenyl]-4H-pyrido[1,2-a]pyrimidin-4-one hydrochloride], the melting point was in the range of 180 to 184 °C.

`CCCCc1nc2ccccn2c(=O)c1-c1ccc(O[C@@H]2CCNC2)cc1` (as salt: hydrochloride) [Example 15, (R)-2-butyl-3-{4-[pyrrolidin-3-yloxy]phenyl}-4H-pyrido[1,2-a]pyrimidin-4-one hydrochloride] came in with a melting point of 132 to 140 °C.

`CCCCc1nc2ccccn2c(=O)c1-c1ccc(NC[C@@H]2CCCO2)cc1` (as salt: hydrochloride) [Example 3.28, (S)-2-butyl-3-(4-{[tetrahydrofuran-2-ylmethyl]amino}phenyl)-4H-pyrido[1,2-a]pyrimidin-4-one hydrochloride] registered a melting point of 155 to 170 °C.

The compound `CCCCc1nc2ccccn2c(=O)c1-c1ccc(N[C@@H]2CCNC2)c(F)c1` (as salt: hydrochloride) [Example 7.2, (R)-2-butyl-3-{3-fluoro-4-[(pyrrolidin-3-ylamino]phenyl}-4H-pyrido[1,2-a]pyrimidin-4-one hydrochloride] came in with a melting point of 143 to 155 °C.

In the case of `CCCCc1nc2ccccn2c(=O)c1-c1ccc(NC2CCNCC2)cc1` (as salt: hydrochloride) [Example 6.1, 2-butyl-3-[4-(piperidin-4-ylamino)phenyl]-4H-pyrido[1,2-a]pyrimidin-4-one hydrochloride], the melting point is more than 220 °C.

`O=c1c(-c2ccc(N[C@@H]3CCNC3)cc2)c(N2CCCC2)nc2ccccn12` (as salt: chloride) [Example 7.11, (R)-2-pyrrolidin-1-yl-3-{4-[pyrrolidin-3-ylamino]phenyl}-4H-pyrido[1,2-a]pyrimidin-4-one hydrogen chloride] came in with a melting point of 177 to 183 °C.

As for `CCCCc1nc2ccccn2c(=O)c1-c1ccc(NC2CCNC2)cc1` (stereo not shown) (as salt: hydrochloride) [Example 7, 2-butyl-3-(4-(pyrrolidin-3-ylamino)phenyl)-4H-pyrido[1,2-a]pyrimidin-4-one hydrochloride], the melting point was 136 to 139 °C.

Take `CCCOc1nc2ccccn2c(=O)c1-c1ccc(N[C@@H]2CCNC2)cc1` (as salt: trifluoroacetate) [Example 9.1, (R)-2-propoxy-3-(4-(pyrrolidin-3-ylamino)phenyl)-4H-pyrido[1,2-a]pyrimidin-4-one trifluoroacetate]: the melting point was > 100 °C (dec.).

As for `Cc1nc2ccccn2c(=O)c1-c1ccc(N[C@@H]2CCNC2)cc1` (as salt: hydrochloride) [Example 6.3, (R)-2-methyl-3-(4-(pyrrolidin-3-ylamino)phenyl)-4H-pyrido[1,2-a]pyrimidin-4-one hydrochloride], the melting point is 149 to 158 °C.

As to `CCCCc1nc2ccccn2c(=O)c1-c1ccc2c(c1)CCN2C1CCNC1` (stereo not shown) (as salt: hydrochloride) [Example 7.12, 2-butyl-3-(1-(pyrrolidin-3-yl)indolin-5-yl)-4H-pyrido[1,2-a]pyrimidin-4-one hydrochloride], the melting point was 159 to 163 °C.

With `CC(C)CCc1nc2ccccn2c(=O)c1-c1ccc(Cl)cc1` [Example 1.17, 3-(4-chlorophenyl)-2-isopentyl-4H-pyrido[1,2-a]pyrimidin-4-one], the melting point was in the range of 146 to 149 °C.

Compound `CC(C)Nc1nc2ccccn2c(=O)c1-c1ccc(N[C@@H]2CCN(C(=O)OC(C)(C)C)C2)cc1` [Example 3.23, (R)-tert-butyl 3-[(4-{2-[(1-methylethyl)amino]-4-oxo-4H-pyrido[1,2-a]pyrimidin-3-yl}phenyl)amino]pyrrolidine-1-carboxylate] came in with a melting point of 208 to 211 °C.

As to `CCCCc1nc2ccccn2c(=O)c1-c1ccc(Cl)cc1C` [Example 1.9, 2-butyl-3-(4-chloro-2-methylphenyl)-4H-pyrido[1,2-a]pyrimidin-4-one], the melting point was 105 to 107 °C.

The compound `CCCCc1nc2ccccn2c(=O)c1-c1ccc(OC)c(Cl)c1` [Example 1.13, 2-butyl-3-(3-chloro-4-methoxyphenyl)-4H-pyrido[1,2-a]pyrimidin-4-one] gave a melting point of 113 to 115 °C.

Compound `CCCCc1nc2ccccn2c(=O)c1-c1ccc(N2CCNCC2)nc1` (as salt: hydrochloride) [Example 7.13, 2-butyl-3-(6-piperazin-1-ylpyridin-3-yl)-4H-pyrido[1,2-a]pyrimidin-4-one hydrochloride] had a melting point of more than 245 °C.

`CC(C)Nc1nc2ccccn2c(=O)c1-c1ccc(N[C@@H]2CCNC2)cc1` (as salt: hydrochloride) [Example 7.10, (R)-2-[(1-methylethyl)amino]-3-{4-[pyrrolidin-3-ylamino]phenyl}-4H-pyrido[1,2-a]pyrimidin-4-one hydrochloride] gave a melting point of 229 to 234 °C.

`CCCCc1nc2ccccn2c(=O)c1-c1ccc(NC2CCN(C(=O)OC(C)(C)C)C2)cc1` (stereo not shown) [Example 3.7, tert-butyl 3-{[4-(2-butyl-4-oxo-4H-pyrido[1,2-a]pyrimidin-3-yl)phenyl]amino}pyrrolidine-1-carboxylate] displayed a melting point of 116 to 118 °C.

`COCCc1nc2ccccn2c(=O)c1-c1ccc(Cl)cc1` [Example 1.26, 3-(4-chlorophenyl)-2-(2-methoxyethyl)-4H-pyrido[1,2-a]pyrimidin-4-one] had a melting point of 116 to 118 °C.

As for `CCCCc1nc2ccccn2c(=O)c1-c1ccc(NC[C@H]2CCCO2)cc1` (as salt: hydrochloride) [Example 3.27, (R)-2-butyl-3-(4-{[tetrahydrofuran-2-ylmethyl]amino}phenyl)-4H-pyrido[1,2-a]pyrimidin-4-one hydrochloride], the melting point is 155 to 170 °C.

As for `CCCNc1nc2ccccn2c(=O)c1-c1ccc(NC2CCNC2)cc1` (stereo not shown) (as salt: hydrochloride) [Example 7.8, 2-(propylamino)-3-[4-(pyrrolidin-3-ylamino)phenyl]-4H-pyrido[1,2-a]pyrimidin-4-one hydrochloride], the melting point fell in the range of 156 to 161 °C.

The compound `CCCCc1nc2ccccn2c(=O)c1-c1ccc(N(C)C2CCCNC2)cc1` (stereo not shown) (as salt: hydrochloride) [Example 17, 2-butyl-3-{4-[methyl(piperidin-3-yl)amino]phenyl}-4H-pyrido[1,2-a]pyrimidin-4-one hydrochloride] displayed a melting point of 170 to 185 °C.

For `CCCCc1nc2ccccn2c(=O)c1-c1ccc(N[C@@H]2CCCNC2)cc1` (as salt: hydrochloride) [Example 6.2, (R)-2-butyl-3-{4-[piperidin-3-ylamino]phenyl}-4H-pyrido[1,2-a]pyrimidin-4-one hydrochloride], the melting point lay in the range of 190 to 210 °C.

The compound `CCCCc1nc2ccccn2c(=O)c1-c1ccccc1Cl` [Example 1.6, 2-butyl-3-(2-chlorophenyl)-4H-pyrido[1,2-a]pyrimidin-4-one] displayed a melting point of 118 to 120 °C.

In the case of `CCCCc1nc2ccccn2c(=O)c1-c1ccc(N[C@H]2CCNC2)cc1` (as salt: hydrochloride) [Example 7.1, (S)-2-butyl-3-{4-[pyrrolidin-3-ylamino]phenyl}-4H-pyrido[1,2-a]pyrimidin-4-one hydrochloride], the melting point fell in the range of 164 to 171 °C.

Compound `CCCCc1nc2ccccn2c(=O)c1-c1ccc(NC2CCCNC2)cc1` (stereo not shown) (as salt: hydrochloride) [Example 6, 2-butyl-3-[4-(piperidin-3-ylamino)phenyl]-4H-pyrido[1,2-a]pyrimidin-4-one hydrochloride] gave a melting point of 178 to 185 °C.

`CCCCc1nc2ccccn2c(=O)c1-c1ccc(N[C@H]2CCN(C(=O)OC(C)(C)C)C2)cc1` [Example 3.8, (S)-tert-butyl 3-(4-(2-butyl-4-oxo-4H-pyrido[1,2-a]pyrimidin-3-yl)phenylamino)pyrrolidine-1-carboxylate] gave a melting point of 95 to 96 °C.

With `CCCCc1nc2ccccn2c(=O)c1-c1ccc2[nH]ccc2c1` [Example 1.30, 2-butyl-3-(1H-indol-5-yl)-4H-pyrido[1,2-a]pyrimidin-4-one], the melting point fell in the range of 132 to 135 °C.
